Experimental data published in patent US8969565B2, “Imidazo[1,2-b]pyridazine-based compounds, compositions comprising them, and methods of their use” (Lexicon Pharmaceuticals, Inc., priority 2012, dated 2015).

Biological target: T1, AAK1 (Homo sapiens, UniProt Q2M2I8)
T1 construct: HA; expressed in transfected cells; host or cells: HEK293F
Assay: HEK281 cell-based assay (phospho-mu2 Western blot in transfected HEK293F cells)
Conditions: 3 hours incubation, read-out: CBA IC50
Procedure: HEK293F cells were cultured in media containing DMEM (Gibco, cat. #11965), 10% FBS (SAFC Biosciences, cat. #12103C), 1×GPS (glutamine, penicillin and streptomycin). On day one, cells were plated on a 10 cm dish so that they are ˜80% confluent at time of transfection. Roughly 12 million cells were in a 10 cm dish at time of transfection. On day two, each dish was transfected with 48 ug DNA and 144 ul Lipofectamine 2000 (Invitrogen, cat.#11668-019). The DNA was comprised of a mixture (per 10 cm dish) containing 3 ug AAK1/HA/pIRES (full length human, NCBI accession no. NP_055726.2), 45 μg Flag/AP2MI/pcDNA (full length human), and 1.5 ml OPTI-MEM. The Lipofectamine 2000 is made up of a mixture (per 10 cm dish) containing 144 μl Lipofectamine 2000 and 1.5 ml OPTI-MEM. Each mixture was transferred to individual 15 ml tubes and incubated at RT for 5 minutes, and then the two mixes were combined and incubated at RT for 20 minutes. Growth media was then aspirated from each 10 cm plate and replaced with 10 ml of DMEM+10% FBS (no GPS). Finally, 3 ml DNA/Lipofectamine mix was added to each 10 cm dish and mix gently followed by incubate of plate overnight at 37° C. and 5% CO2.
On day three, compounds were diluted in 100% DMSO at 1000× final concentration, followed by 3-fold serial dilutions for a total of 5 concentrations tested. Four compounds were tested per 10 cm dish. One ul of each compound dilution was then pipetted into a deep-well, 96-well plate, followed by addition of 500 μl DMEM+0.5% FBS into each well for a 2× final concentration of each compound. Cells were resuspended in a 10 cm dish by simple pipetting (HEK293 cells come off the plate that easy at this point) and then transferred to a 50 ml conical tube and pelleted by centrifugation at 1000 rpm for 5 min. Cell pellets were then resuspended in 2.75 ml DMEM+0.5% FBS per 10 cm dish and 100 μl of cell suspension transferred into each well of 96-well TC plate. Finally, 100 μl of 2× compound diluted in DMEM+0.5% FBS was then added into wells containing cell suspension for a 1× final concentration. Plates were then incubated at 37° C. and 5% CO2 for 3 hours followed by transferring of cell suspensions from each well into 12-tube PCR strips. The PCR strips were spun in a tip rack at 1000 rpm for 5 minutes to pellet cells and media was then removed by pipetting without disturbing the cell pellet.
To prepare for Western Blot analysis, cell pellets were resuspend in 40 ul 1×LDS-PAGE sample buffer (Invitrogen, cat.#NP0008)+2× Halt phophatase and protease inhibitor cocktail (Thermo Scientific, cat.#1861284), followed by sonicating each with microtip sonicator set at 5 for 8-10 seconds. Five ul of 10× NuPage Sample Reducing Agent (with 50 mM DTT) was to each sample followed by heat denaturing at 70 C for 10 min on PCR machine. A total of 10 μl per sample was loaded into each lane of a 4-20% Tris-Glycine Criterion 26-well gel (Biorad, cat.#345-0034) for the phospho-mu2 blot and 10 μl per lane in a 4-12% Bis-Tris (+MES buffer) NuPAGE 26-well gel (Invitrogen, cat.#WG1403BX10) for the mu2 blot. For controls, 2 ng of phospho-mu2 or 20 ng mu2/Flag proteins were loaded in the last well of each gel. After SDS-PAGE, samples on each gel were transferred to PVDF membrane using an iBlot and membranes were blocked for one hour in TBST+5% milk, followed by wash 3× for 5-10 min with TBST. Criterion gels were probed with rabbit anti-phospho-mu2 (1:5000; a rabbit polyclonal antibody produced by New England Peptide and affinity purified at Lexicon) in TBST+5% BSA, whereas, NuPAGE gels were probed with mouse anti-Flag (1:500; Sigma, cat.#F1804) in TBST+5% milk, and these primary antibodies were incubated overnight at 4° C. on a rocker.

T1 sequence (Q2M2I8 1-863 isoform Q2M2I8-2): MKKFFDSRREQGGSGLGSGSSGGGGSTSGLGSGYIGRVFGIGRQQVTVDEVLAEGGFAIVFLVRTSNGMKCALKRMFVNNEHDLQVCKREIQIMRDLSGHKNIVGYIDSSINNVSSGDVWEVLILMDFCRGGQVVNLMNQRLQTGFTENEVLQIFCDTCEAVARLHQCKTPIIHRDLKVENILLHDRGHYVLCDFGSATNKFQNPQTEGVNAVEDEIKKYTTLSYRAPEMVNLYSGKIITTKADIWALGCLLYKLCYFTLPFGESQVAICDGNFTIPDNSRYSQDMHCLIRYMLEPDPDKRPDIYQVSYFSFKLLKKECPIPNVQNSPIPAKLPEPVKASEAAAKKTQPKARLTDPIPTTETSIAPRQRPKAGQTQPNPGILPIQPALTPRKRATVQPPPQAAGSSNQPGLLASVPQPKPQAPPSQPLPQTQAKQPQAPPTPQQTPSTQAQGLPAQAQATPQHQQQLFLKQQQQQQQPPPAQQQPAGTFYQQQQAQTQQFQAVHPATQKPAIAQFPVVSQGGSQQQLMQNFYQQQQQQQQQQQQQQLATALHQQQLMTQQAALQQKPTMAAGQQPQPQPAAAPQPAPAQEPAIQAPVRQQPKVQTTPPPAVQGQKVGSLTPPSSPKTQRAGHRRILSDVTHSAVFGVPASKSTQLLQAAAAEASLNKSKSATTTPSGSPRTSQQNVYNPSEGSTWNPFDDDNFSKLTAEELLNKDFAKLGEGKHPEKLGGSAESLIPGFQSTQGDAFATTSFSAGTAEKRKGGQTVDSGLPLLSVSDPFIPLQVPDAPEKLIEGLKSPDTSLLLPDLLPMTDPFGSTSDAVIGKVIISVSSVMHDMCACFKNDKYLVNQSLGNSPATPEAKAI

Row | SMILES | IC50 [nM]
1 | CC(C)(O)CCNc1ccc2ncc(-c3ccc(CN)cc3)n2n1 [4-((3-(4-(aminomethyl)phenyl)imidazo[1,2-b]pyridazin-6-yl)amino)-2-methylbutan-2-ol] | ≤ 100
2 | CCCCNc1ccc2ncc(-c3ccc(C(N)=O)s3)n2n1 [5-(6-(butylamino)imidazo[1,2-b]pyridazin-3-yl)thiophene-2-carboxamide] | ≤ 1000
3 | CCCNc1ccc2ncc(-c3ccc(C=O)s3)n2n1 [5-(6-(propylamino)imidazo[1,2-b]pyridazin-3-yl)thiophene-2-carbaldehyde] | ≤ 1000
4 | CCCCNc1ccc2ncc(C(=O)Nc3cn[nH]c3)n2n1 [6-(butylamino)-N-(1H-pyrazol-4-yl)imidazo[1,2-b]pyridazine-3-carboxamide] | ≤ 1000
5 | CCOC(=O)N1CCC[C@H]1CNc1ccc2ncc(-c3ccc(C4CCCN4)cc3)n2n1 (stereo partly drawn) [(2S)-ethyl 2-(((3-(4-(pyrrolidin-2-yl)phenyl)imidazo[1,2-b]pyridazin-6-yl)amino)methyl)pyrrolidine-1-carboxylate] | ≤ 100
6 | COC(=O)N1CCC[C@H]1CNc1ccc2ncc(-c3ccc(C4CCCN4)cc3)n2n1 (stereo partly drawn) [(2S)-methyl 2-(((3-(4-(pyrrolidin-2-yl)phenyl)imidazo[1,2-b]pyridazin-6-yl)amino)methyl)pyrrolidine-1-carboxylate] | ≤ 100
7 | CCCCNc1ccc2ncc(-c3ccc(C(=O)N4CCC(N)CC4)cc3)n2n1 [(4-aminopiperidin-1-yl)(4-(6-(butylamino)imidazo[1,2-b]pyridazin-3-yl)phenyl)methanone] | ≤ 1000
8 | CC(C)OC(=O)N(C)CCNc1ccc2ncc(-c3ccc([C@H]4CCCN4)cc3)n2n1 [(R)-isopropyl methyl(2-((3-(4-(pyrrolidin-2-yl)phenyl)imidazo[1,2-b]pyridazin-6-yl)amino)ethyl)carbamate] | ≤ 100
9 | CCCCNc1ccc2ncc(-c3ccc([C@H]4CCCN4)cc3)n2n1 [(R)—N-butyl-3-(4-(pyrrolidin-2-yl)phenyl)imidazo[1,2-b]pyridazin-6-amine] | ≤ 1000
10 | COc1ccccc1-c1cnc2ccc(NC[C@@H]3CCCN3C(C)=O)nn12 [(S)-1-(2-(((3-(2-methoxyphenyl)imidazo[1,2-b]pyridazin-6-yl)amino)methyl)pyrrolidin-1-yl)ethanone] | ≤ 100
11 | COc1cnccc1-c1cnc2ccc(NC[C@@H]3CCCN3C(C)=O)nn12 [(S)-1-(2-(((3-(3-methoxypyridin-4-yl)imidazo[1,2-b]pyridazin-6-yl)amino)methyl)pyrrolidin-1-yl)ethanone] | ≤ 100
12 | CC(C)CC(=O)N1CCC[C@H]1CNc1ccc2ncc(Br)n2n1 [(S)-1-(2-(((3-bromoimidazo[1,2-b]pyridazin-6-yl)amino)methyl)pyrrolidin-1-yl)-3-methylbutan-1-one] | ≤ 100
13 | CCCCNc1ccc2ncc(-c3ccc(CNC(=O)[C@@H](N)CC(C)C)cc3)n2n1 [(S)-2-amino-N-(4-(6-(butylamino)imidazo[1,2-b]pyridazin-3-yl)benzyl)-4-methylpentanamide] | ≤ 100
14 | NCc1ccc(-c2cnc3ccc(NC[C@@H]4CCCO4)nn23)cc1 [(S)-3-(4-(aminomethyl)phenyl)-N-((tetrahydrofuran-2-yl)methyl)imidazo[1,2-b]pyridazin-6-amine] | ≤ 100
15 | CC(C)CC(=O)N1CCC[C@H]1CNc1ccc2ncc(-c3ccncc3)n2n1 [(S)-3-methyl-1-(2-(((3-(pyridin-4-yl)imidazo[1,2-b]pyridazin-6-yl)amino)methyl)pyrrolidin-1-yl)butan-1-one] | ≤ 100
16 | CCCCNc1ccc2ncc(-c3ccc([C@@H]4CCCN4)cc3)n2n1 [(S)-N-butyl-3-(4-(pyrrolidin-2-yl)phenyl)imidazo[1,2-b]pyridazin-6-amine] | ≤ 100
17 | CCOC(=O)N1CCC[C@H]1CNc1ccc2ncc(-c3ccccc3OC)n2n1 [(S)-ethyl 2-(((3-(2-methoxyphenyl)imidazo[1,2-b]pyridazin-6-yl)amino)methyl)pyrrolidine-1-carboxylate] | ≤ 100
18 | CCOC(=O)N1CCC[C@H]1CNc1ccc2ncc(-c3ccncc3OC)n2n1 [(S)-ethyl 2-(((3-(3-methoxypyridin-4-yl)imidazo[1,2-b]pyridazin-6-yl)amino)methyl)pyrrolidine-1-carboxylate] | ≤ 100
19 | CCOC(=O)N1CCC[C@H]1CNc1ccc2ncc(-c3ccncc3)n2n1 [(S)-ethyl 2-(((3-(pyridin-4-yl)imidazo[1,2-b]pyridazin-6-yl)amino)methyl)pyrrolidine-1-carboxylate] | ≤ 100
20 | CCOC(=O)N1CCC[C@H]1CNc1ccc2ncc(Br)n2n1 [(S)-ethyl 2-(((3-bromoimidazo[1,2-b]pyridazin-6-yl)amino)methyl)pyrrolidine-1-carboxylate] | ≤ 100
21 | CCOC(=O)N(C)[C@H]1CCN(c2ccc3ncc(-c4ccc(C)nc4OC)n3n2)C1 [(S)-ethyl (1-(3-(2-methoxy-6-methylpyridin-3-yl)imidazo[1,2-b]pyridazin-6-yl)pyrrolidin-3-yl)(methyl)carbamate] | ≤ 100

Next, values leading:

Row | IC50 [nM] | SMILES
22 | ≤ 100 | CCCCNc1ccc2ncc(-c3ccc(C(=O)NCCNC)c(F)c3)n2n1 [4-(6-(butylamino)imidazo[1,2-b]pyridazin-3-yl)-2-fluoro-N-(2-(methylamino)ethyl)benzamide]
23 | ≤ 10 | CCCCNc1ccc2ncc(-c3ccc(C(=O)NCCN(CC)CC)cc3)n2n1 [4-(6-(butylamino)imidazo[1,2-b]pyridazin-3-yl)-N-(2-(diethylamino)ethyl)benzamide]
24 | ≤ 100 | CCCCNc1ccc2ncc(-c3ccc(C(=O)NCCN(C)C)cc3)n2n1 [4-(6-(butylamino)imidazo[1,2-b]pyridazin-3-yl)-N-(2-(dimethylamino)ethyl)benzamide]
25 | ≤ 100 | CCCCNc1ccc2ncc(-c3ccc(C(=O)NCCNC)cc3)n2n1 [4-(6-(butylamino)imidazo[1,2-b]pyridazin-3-yl)-N-(2-(methylamino)ethyl)benzamide]
26 | ≤ 100 | CCCCNc1ccc2ncc(-c3ccc(C(=O)NCCN4CCCC4)cc3)n2n1 [4-(6-(butylamino)imidazo[1,2-b]pyridazin-3-yl)-N-(2-(pyrrolidin-1-yl)ethyl)benzamide]
27 | ≤ 100 | CCCCNc1ccc2ncc(-c3ccc(C(N)=O)cc3)n2n1 [4-(6-(butylamino)imidazo[1,2-b]pyridazin-3-yl)benzamide]
28 | ≤ 10 | COc1ccccc1-c1cnc2ccc(NC[C@@H]3CCCN3C(=O)CC(C)C)nn12 [(S)-1-(2-(((3-(2-methoxyphenyl)imidazo[1,2-b]pyridazin-6-yl)amino)methyl)pyrrolidin-1-yl)-3-methylbutan-1-one]
29 | ≤ 10 | COc1cnccc1-c1cnc2ccc(NC[C@@H]3CCCN3C(=O)CC(C)C)nn12 [(S)-1-(2-(((3-(3-methoxypyridin-4-yl)imidazo[1,2-b]pyridazin-6-yl)amino)methyl)pyrrolidin-1-yl)-3-methylbutan-1-one]
30 | ≤ 10 | CC(C)CC(=O)N1CCC[C@H]1CNc1ccc2ncc(-c3ccc(CN)cc3)n2n1 [(S)-1-(2-(((3-(4-(aminomethyl)phenyl)imidazo[1,2-b]pyridazin-6-yl)amino)methyl)pyrrolidin-1-yl)-3-methylbutan-1-one]
31 | ≤ 10 | CCOC(=O)N1CCC[C@H]1CNc1ccc2ncc(-c3ccc(CN)cc3)n2n1 [(S)-ethyl 2-(((3-(4-(aminomethyl)phenyl)imidazo[1,2-b]pyridazin-6-yl)amino)methyl)pyrrolidine-1-carboxylate]
